According to US20120328696A1, “ANTI-PARKINSONIAN COMPOUND ACETYLSALICYLIC ACID MALTOL ESTER” (Hutecs Korea Pharmaceutical Co., Ltd., priority 2008, published 2012):

Experiments:
Format in all cases: in vivo
[1] = system: brain-derived neurotrophic factor (BDNF); assay: Striatal BDNF expression after MA (western blot); settings: p.o.; AME 50, EBS 20, rottlerin 20 mg/kg; MA 8 mg/kg i.p. x4; GPx-1 (+/+) and (−/−) mice
Protocol: (§1) The mice received four times of MA (8 mg/kg, ip) or saline as a 2 hr-time interval. Chemicals (AME, EBS, and PKC inhibitors) were administrated for 5 consecutive days (twice daily), and were given 2 times at 4 hr and 30 min before the first MA injection as shown in the experimental schedule. Animals were sacrificed at 4 hrs and 3 days after the final MA administration.
(§2) The western blot assays was performed as described previously (Kim et al., 2003). Tissues were homogenized in lysis buffer, containing 200 mM Tris HCl (pH 6.8), 1% SDS, 5 mM EGTA (ethylene glycol tetraacetic acid), 5 mM EDTA (ethylenediaminetetraacetic acid), 10% glycerol, 1× phosphatase inhibitor cocktail I, 1× protease inhibitor cocktail. Lysate was centrifuged at 12,000×g for 30 min and supernatant fraction was used for Western blot analysis. Proteins (20-50 ug/lane) were separated by 6%, 8%, 10% or 15% sodium dodecyl sulfate-polyacrylamide gel electrophoresis and transferred onto the PVDF membranes. Following transfer, the membranes were preincubated with 5% non-fat milk and incubated overnight at 4° C. with primary antibody against β-actin (1:50000, Sigma, St. Louis, Mo., USA), TH (1:5000, Chemicon), TH phosphor-Ser 19 (1:1000, Chemicon,), TH phosphor-Ser 31 (1:500, Chemicon), TH phosphor-Ser 40 (1:500, Chemicon), F4/80 (1:500, Serotec), GPx1 (1:2500, AbFrontier), PKC (1:5000, Santa Cruz biotechnology, Santa Cruz, Calif., USA), p53 (1:5000, Cell signaling, Beverly, Mass., USA), MDM2 (1:1000, BD Pharmingen, San Jose, Calif., USA), MDM2 phospho-Ser 166 (1:1000, cell signaling), BDNF (1:500, Chemicon), GDNF (1:250, Santa Cruz), COX-2 (1:2000, Cayman, Ann Arbor, MC, USA), IL-6 (1:2000, Abcam, Cambridge, Mass., USA), TNF-a (1:1000, R&D Systems, Mckinley place NE, NM, USA), IFN-γ (1:500, Chemicon) or Iba-1 (1:500, Wako, Osaka, Japan). And then, membranes were incubated with HRP-conjugated secondary anti-rabbit IgG (1:1000, GE healthcare, Piscataway, N.J., USA), anti-mouse IgG (1:1000, Sigma) or anti-goat IgG (1:1000, Sigma) for 2 h. […]

interleukin (IL)-6 = assay: IL-6 expression after MA (western blot); settings: p.o.; AME 50, EBS 20, rottlerin 20 mg/kg; MA 8 mg/kg i.p. x4; GPx-1 (+/+) and (−/−) mice
Protocol: as §1, §2

[2] = system: reactive oxygen species (ROS); assay: Striatal ROS formation after MA; settings: striatum, 3 days after final MA; p.o.; AME 50, EBS 20, rottlerin 20 mg/kg; GPx-1 (+/+) and (−/−) mice
Protocol: as §1
The extent of reactive oxygen species (ROS) formation in the striatum was assessed by measuring the convertion from 2′,7′-dichlorofluorescin diacetate (DCFH-DA) to dichlorofluoresin (DCF) as describe by Bourre et al., (2002) with slight modification. Brain homogenates were added to a tube containing 2 ml of PBS with 10 nmole of DCFH-DA, dissolved in methanol. Mixture were incubated at 37° C. for 3 hours and then measured the absorbance at 480 nm excitation and 525 nm emission. DCF is used as a standard.

PKCδ = assay: Striatal PKCδ-like immunoreactivity after MA (immunocytochemistry); settings: p.o.; AME 50, EBS 20, rottlerin 20 mg/kg; MA 8 mg/kg i.p. x4; GPx-1 (+/+) and (−/−) mice
Protocol: as §1
Animals were sacrificed at 4 hours and 3 days after the last MA injection. They were anesthetized with 60% urethane and perfused transcardially with 50 ml of 50 mM phosphate buffered saline (PBS), followed by 50 ml of a mixture of 4% paraformaldehyde in PBS. The rate of perfusion was 50 ml/min. The brains were removed, post-fixed at 4° C. for 24 h in the same fixative and then cryoprotected in 30% sucrose in PBS.
The immunocytochemistry was performed as described previously (Kim et al., 2000a, b). Briefly, prior to incubation with the primary antibodies, sections were preincubated with 0.3% hydrogen peroxide in PBS for 30 min (to block endogenous peroxidase activity), then in PBS containing 0.4% Triton X-100 for 20 min and 1% normal serum for 20 min. The sections were then incubated for 48 h at 4° C. in primary antibody against tyrosine hydroxylase (1:500, Chemicon, Termecula, Calif., USA), GPx1 (1:500, AbFrontier, Seoul, Korea), PKC (1:200, Santa Cruz biotechnology INC, CA, USA) or F4/80 (1:50, Serotec, Raleigh, N.C., USA). The sections were further incubated with secondary biotinylated antisera (1:1000 dilution; Vector, Brulingame, Calif.) for 1 hr, and immersed in avidin-biotin-peroxidase complex (ABC Elite kit, Vector) for 1 hr. Sections were always washed three times with PBS (pH 7.4) between each incubation step. 3,3′-diaminobenzidine (DAB) was used as a chromogen.

MDA, 4-HNE = assay: Striatal lipid peroxidation (MDA, 4-HNE) after MA; settings: MDA and 4-HNE; striatum, 3 days after final MA; p.o.; AME 50, EBS 20, rottlerin 20 mg/kg; GPx-1 (+/+) and (−/−) mice
Protocol: as §1
The amount of lipid peroxidation was assessed by measuring the accumulation of thiobarbituric acid-reactive substance in homogenates of striatal tissue and is expressed as malondialdehyde (MDA) content (Kim et al., 1999, 2000b, 2002). In brief, 0.1 ml of the homogenate (or standard solutions prepared daily from 1,1,3,3-tetra-methoxypropane) and 0.75 ml of the working solution (thiobarbituric acid 0.37% and perchloric acid 6.4%, 2:1 v/v) were mixed and heated in a water bath to 95° C. for 1 h. After cooling (10 min in ice water bath), the flocculent precipitate was removed by centrifugation at 3200×g for 10 min. The supernatant was neutralized and filtered prior to injection on an ODS 5 μm column. Mobile phase consisted of 50 mM PBS (pH 6.0): methanol (58:42, v/v). Isocratic separation was performed with 1.0 ml/min flow rate and detection at 532 nm using a UV/VIS HPLC-Detector (Model 486, Waters Associates, Milford, Mass., USA). MDA values were expressed as nmole/mg protein.
4-hydroxy-2-nonenal (4HNE) is major product of the lipid peroxidation process (Benedetti et al., 1980). Determining of 4HNE was performed as slot blot analysis (Zhang et al., 2000). Briefly, following transfer, the PVDF membranes were preincubated with 5% non-fat milk and incubated overnight at 4° C. with anti-4HNE (1:2000, Calbiochem, San Diego, Calif., USA). After incubation with primary antibody, membranes were incubated with a HRP-conjugated secondary antibody. Subsequent visualization was performed using enhanced chemiluminescence system (ECL Plus®, GE healthcare).

Row | SMILES | effect on MA-induced reduction in BDNF expression [1] | effect on MA-induced increase in IL-6 expression (interleukin (IL)-6) | effect on MA-induced increase in ROS [2] | effect on MA-induced increase in striatal PKCδ-IR (PKCδ) | effect on MA-induced increase in lipid peroxidation (MDA, 4-HNE)
1 | O=c1c2ccccc2[se]n1-c1ccccc1 [EBS, 2-phenyl-1,2-benzisoselenazol-3(2H)-one] | significantly attenuated these reductions | significantly and consistently attenuating effects | significantly attenuated | significantly attenuated MA-induced increase in striatal PKCδ-IR | significantly attenuated
2 | CC(=O)c1c(O)c(C)c(O)c(Cc2c(O)c3c(c(C(=O)/C=C/c4ccccc4)c2O)OC(C)(C)C=C3)c1O [rottlerin] | significantly attenuated these reductions | significantly and consistently attenuating effects | significantly attenuated | significantly attenuated MA-induced increase in striatal PKCδ-IR | significantly attenuated
3 | CC(=O)Oc1ccccc1C(=O)Oc1c(C)occc1=O [AME, 3-(2-methyl-4-pyronyl)-2-acetyloxybenzoate] | significantly attenuated these reductions | significantly and consistently attenuating effects | significantly attenuated | significantly attenuated MA-induced increase in striatal PKCδ-IR | significantly attenuated
